Measurements from patent publication US12071441B2, “10-(di(phenyl)methyl)-4-hydroxy-8,9,9A,10-tetrahydro-7H-pyrrolo[1′,2′:4,5]pyrazino[1,2-b]pyridazine-3,5-dione derivatives and related compounds as inhibitors of the orthomyxovirus replication for treating influenza” (Novartis AG, priority 2018, dated 2024).

Columns and labels:
Experiment in all cases: microbe, parasite or virus in culture
Assay type in all cases: cell-based
[1] = tested on: influenza A virus minigenome (PB2, PB1, PA, NP; luciferase reporter) in 293T cells, RNP_Alaska; details: HEK-293T, 48 h
[2] = tested on: influenza A virus minigenome (PB2, PB1, PA, NP; luciferase reporter) in 293T cells, RNP_Hubei; details: HEK-293T, 48 h
[3] = tested on: influenza A virus minigenome (PB2, PB1, PA, NP; luciferase reporter) in 293T cells, RNP_CAL; details: HEK-293T, 48 h, read-out: RNP_CAL_EC50

Structure (SMILES)	EC50 [1]	EC50 [2]	EC50 [3]
COc1ccccc1[C@H](c1ccc(F)cc1)[C@H]1[C@H]2CCCN2C(=O)c2c(O)c(=O)cnn21 [Example 6, (9aR,10S)-10-((S)-(4-fluorophenyl)(2-methoxyphenyl)methyl)-4-hydroxy-8,9,9a,10-tetrahydro-7H-pyrrolo[1′,2′:4,5]pyrazino[1,2-b]pyridazine-3,5-dione]	100 to 1000 nM	100 to 1000 nM	100 to 1000 nM
COc1ccc([C@H](c2ccc(F)cc2)[C@H]2[C@H]3CCCN3C(=O)c3c(O)c(=O)cnn32)cc1 [Example 7, (9aR,10S)-10-((R)-(4-fluorophenyl)(4-methoxyphenyl)methyl)-4-hydroxy-8,9,9a,10-tetrahydro-7H-pyrrolo[1′,2′:4,5]pyrazino[1,2-b]pyridazine-3,5-dione]	100 to 1000 nM	100 to 1000 nM	100 to 1000 nM
O=C1c2c(O)c(=O)cnn2[C@@H]([C@H](c2ccccc2F)c2cccc(F)c2F)[C@H]2CCCN12 [Example 8, (9aR,10S)-10-((R)-(2,3-difluorophenyl)(2-fluorophenyl)methyl)-4-hydroxy-8,9,9a,10-tetrahydro-7H-pyrrolo[1′,2′:4,5]pyrazino[1,2-b]pyridazine-3,5-dione]	< 100 nM	< 100 nM	< 100 nM
COc1cccc([C@H](c2ccc(F)cc2)[C@H]2[C@H]3CCCN3C(=O)c3c(O)c(=O)cnn32)c1 [Example 9, (9aR,10S)-10-((S)-(4-fluorophenyl)(3-methoxyphenyl)methyl)-4-hydroxy-8,9,9a,10-tetrahydro-7H-pyrrolo[1′,2′:4,5]pyrazino[1,2-b]pyridazine-3,5-dione]	100 to 1000 nM	< 100 nM	100 to 1000 nM
Cc1cccc([C@H](c2ccc(F)cc2)[C@H]2[C@H]3CCCN3C(=O)c3c(O)c(=O)cnn32)c1 [Example 10, (9aR,10S)-10-((S)-(4-fluorophenyl)(m-tolyl)methyl)-4-hydroxy-8,9,9a,10-tetrahydro-7H-pyrrolo[1′,2′:4,5]pyrazino[1,2-b]pyridazine-3,5-dione]	< 100 nM	< 100 nM	< 100 nM
Cc1c([C@@H](c2cccc(F)c2)[C@H]2[C@H]3CCCN3C(=O)c3c(O)c(=O)cnn32)ccc(F)c1F [Example 11, (9aR,10S)-10-((R)-(3,4-difluoro-2-methylphenyl)(3-fluorophenyl)methyl)-4-hydroxy-8,9,9a,10-tetrahydro-7H-pyrrolo[1′,2′:4,5]pyrazino[1,2-b]pyridazine-3,5-dione]	< 100 nM	< 100 nM	< 100 nM
Cc1cccc([C@@H](c2cccc(F)c2)[C@H]2[C@H]3CCCN3C(=O)c3c(O)c(=O)cnn32)c1F [Example 12, (9aR,10S)-10-((R)-(2-fluoro-3-methylphenyl)(3-fluorophenyl)methyl)-4-hydroxy-8,9,9a,10-tetrahydro-7H-pyrrolo[1′,2′:4,5]pyrazino[1,2-b]pyridazine-3,5-dione]	100 to 1000 nM	100 to 1000 nM	100 to 1000 nM
O=C1c2c(O)c(=O)cnn2[C@@H](C(c2cccc(F)c2)c2cccc(F)c2)[C@H]2CC(F)(F)CN12 [Example 13, (9aR,10S)-10-(bis(3-fluorophenyl)methyl)-8,8-difluoro-4-hydroxy-8,9,9a,10-tetrahydro-7H-pyrrolo[1′,2′:4,5]pyrazino[1,2-b]pyridazine-3,5-dione]	≥ 1000 nM	100 to 1000 nM	≥ 1000 nM
O=C1c2c(O)c(=O)cnn2[C@@H]([C@H](c2ccccc2)c2cccc(F)c2F)[C@@H]2COCCN12 [Example 14, (10aR,11S)-11-((R)-(2,3-difluorophenyl)(phenyl)methyl)-4-hydroxy-7,8,10a,11-tetrahydro-10H-pyridazino[1′,6′:4,5]pyrazino[2,1-c][1,4]oxazine-3,5-dione]	< 100 nM	< 100 nM	< 100 nM
Cc1c(F)cccc1[C@@H](c1cccc(F)c1)[C@H]1[C@H]2CCCN2C(=O)c2c(O)c(=O)cnn21 [Example 15, (9aR,10S)-10-((R)-(3-fluoro-2-methylphenyl)(3-fluorophenyl)methyl)-4-hydroxy-8,9,9a,10-tetrahydro-7H-pyrrolo[1′,2′:4,5]pyrazino[1,2-b]pyridazine-3,5-dione]	< 100 nM	< 100 nM	< 100 nM
O=C1c2c(O)c(=O)cnn2[C@@H]([C@H](c2ccccc2)c2c(F)ccc(F)c2F)[C@H]2CCCN12 [Example 16, (9aR,10S)-4-hydroxy-10-((R)-phenyl(2,3,6-trifluorophenyl)methyl)-8,9,9a,10-tetrahydro-7H-pyrrolo[1′,2′:4,5]pyrazino[1,2-b]pyridazine-3,5-dione]	< 100 nM	< 100 nM	< 100 nM
Cc1ccccc1[C@H](c1cccc(C)c1F)[C@H]1[C@H]2CCCN2C(=O)c2c(O)c(=O)cnn21 [Example 17, (9aR,10S)-10-((R)-(2-fluoro-3-methylphenyl)(o-tolyl)methyl)-4-hydroxy-8,9,9a,10-tetrahydro-7H-pyrrolo[1′,2′:4,5]pyrazino[1,2-b]pyridazine-3,5-dione]	100 to 1000 nM	< 100 nM	100 to 1000 nM
Cc1c(F)cccc1[C@@H](c1ccc(F)cc1)[C@H]1[C@H]2CCCN2C(=O)c2c(O)c(=O)cnn21 [Example 18, (9aR,10S)-10-((R)-(3-fluoro-2-methylphenyl)(4-fluorophenyl)methyl)-4-hydroxy-8,9,9a,10-tetrahydro-7H-pyrrolo[1′,2′:4,5]pyrazino[1,2-b]pyridazine-3,5-dione]	< 100 nM	< 100 nM	< 100 nM
Cc1c(F)cccc1[C@@H](c1ccccc1)[C@H]1[C@H]2CCCN2C(=O)c2c(O)c(=O)cnn21 [Example 19, (9aR,10S)-10-((R)-(3-fluoro-2-methylphenyl)(phenyl)methyl)-4-(|1-oxidanyl)-8,9,9a,10-tetrahydro-7H-pyrrolo[1′,2′:4,5]pyrazino[1,2-b]pyridazine-3,5-dione]	< 100 nM	< 100 nM	< 100 nM
O=C1c2c(O)c(=O)cnn2[C@@H]([C@H](c2ccc(F)cc2)c2cccc(C(F)(F)F)c2)[C@H]2CCCN12 [Example 20, (9aR,10S)-10-((R)-(4-fluorophenyl)(3-(trifluoromethyl)phenyl)methyl)-4-hydroxy-8,9,9a,10-tetrahydro-7H-pyrrolo[1′,2′:4,5]pyrazino[1,2-b]pyridazine-3,5-dione]	100 to 1000 nM	100 to 1000 nM	100 to 1000 nM
O=C1c2c(O)c(=O)cnn2[C@@H]([C@H](c2ccc(F)cc2)c2ccc(C(F)(F)F)cc2)[C@H]2CCCN12 [Example 21, (9aR,10S)-10-((S)-(4-fluorophenyl)(4-(trifluoromethyl)phenyl)methyl)-4-hydroxy-8,9,9a,10-tetrahydro-7H-pyrrolo[1′,2′:4,5]pyrazino[1,2-b]pyridazine-3,5-dione]	100 to 1000 nM	100 to 1000 nM	100 to 1000 nM
O=C1c2c(O)c(=O)cnn2[C@@H]([C@H](c2ccc(F)cc2)c2cccc(OC(F)(F)F)c2)[C@H]2CCCN12 [Example 22, (9aR,10S)-10-((R)-(4-fluorophenyl)(3-(trifluoromethoxy)phenyl)methyl)-4-hydroxy-8,9,9a,10-tetrahydro-7H-pyrrolo[1′,2′:4,5]pyrazino[1,2-b]pyridazine-3,5-dione]	100 to 1000 nM	100 to 1000 nM	100 to 1000 nM
O=C1c2c(O)c(=O)cnn2[C@@H]([C@H](c2ccc(F)cc2)c2ccc(OC(F)(F)F)cc2)[C@H]2CCCN12 [Example 23, (9aR,10S)-10-((S)-(4-fluorophenyl)(4-(trifluoromethoxy)phenyl)methyl)-4-hydroxy-8,9,9a,10-tetrahydro-7H-pyrrolo[1′,2′:4,5]pyrazino[1,2-b]pyridazine-3,5-dione]	≥ 1000 nM	100 to 1000 nM	100 to 1000 nM
COc1cccc([C@@H](c2ccc(F)cc2)[C@H]2[C@H]3CCCN3C(=O)c3c(O)c(=O)cnn32)c1 [Example 24, (9aR,10S)-10-((R)-(4-fluorophenyl)(3-methoxyphenyl)methyl)-4-hydroxy-8,9,9a,10-tetrahydro-7H-pyrrolo[1′,2′:4,5]pyrazino[1,2-b]pyridazine-3,5-dione]	100 to 1000 nM	100 to 1000 nM	100 to 1000 nM
COc1ccccc1[C@@H](c1ccc(F)cc1)[C@H]1[C@H]2CCCN2C(=O)c2c(O)c(=O)cnn21 [Example 25, (9aR,10S)-10-((R)-(4-fluorophenyl)(2-methoxyphenyl)methyl)-4-hydroxy-8,9,9a,10-tetrahydro-7H-pyrrolo[1′,2′:4,5]pyrazino[1,2-b]pyridazine-3,5-dione]	100 to 1000 nM	100 to 1000 nM	100 to 1000 nM
COc1ccc([C@@H](c2ccc(F)cc2)[C@H]2[C@H]3CCCN3C(=O)c3c(O)c(=O)cnn32)cc1 [Example 26, (9aR,10S)-10-((S)-(4-fluorophenyl)(4-methoxyphenyl)methyl)-4-hydroxy-8,9,9a,10-tetrahydro-7H-pyrrolo[1′,2′:4,5]pyrazino[1,2-b]pyridazine-3,5-dione]	100 to 1000 nM	100 to 1000 nM	100 to 1000 nM
O=C1c2c(O)c(=O)cnn2[C@@H]([C@@H](c2ccc(F)c(F)c2)c2cccc(F)c2F)[C@H]2CCCN12 [Example 27, (9aR,10S)-10-((S)-(2,3-difluorophenyl)(3,4-difluorophenyl)methyl)-4-hydroxy-8,9,9a,10-tetrahydro-7H-pyrrolo[1′,2′:4,5]pyrazino[1,2-b]pyridazine-3,5-dione]	100 to 1000 nM	< 100 nM	< 100 nM
O=C1c2c(O)c(=O)cnn2[C@@H]([C@@H](c2ccccc2F)c2cccc(F)c2F)[C@H]2CCCN12 [Example 28, (9aR,10S)-10-((S)-(2,3-difluorophenyl)(2-fluorophenyl)methyl)-4-hydroxy-8,9,9a,10-tetrahydro-7H-pyrrolo[1′,2′:4,5]pyrazino[1,2-b]pyridazine-3,5-dione]	< 100 nM	< 100 nM	< 100 nM
